In assay [1] the test system is human multiple myeloma cell line, OPM-2. The experiment in a line: Cell viability assay (OPM-2 10 FBS), CellTiter-Glo. The assay is classed as cell-based. In short, it runs like this:
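IC50 values come from 4-parameter logistic fits of luminescence signals reflecting cell viability. Treatment lasted 16 h at 37 °C in complete medium with 10% FBS, starting from 3000 cells/well.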
Background: In ATP-based viability assays light output follows the ATP content of the culture.

Assay [2] addresses recombinant human Mcl-1 (residues 171-327) / Bim interaction (Homo sapiens (Human), UniProt Q07820). The experiment in a line: biochemical. As to conditions: read-out: Mcl-1 HTRF IC50. The format is binding. On the technique in general: TR-FRET usually uses a lanthanide donor and a delayed reading to cut background.
Setting [3] is: Homo sapiens, OPM-2, 16 h, read-out: OPM-2 10% FBS IC50 IP, OPM-2 cells, 10% FBS, 16 h incubation.
The mark [4] stands for this setting: 0.1 nM Mcl-1(171-327), 0.05 nM biotin-Bim (51-76).
[5] abbreviates: Homo sapiens, OPM-2, 16 h, read-out: OPM-2 10% FBS IC50 IP, OPM-2 cells, 10% FBS, 16 h, CellTiter-Glo.
[6] abbreviates: TR-FRET, Mcl-1(171-327) / biotin-Bim (51-76).
Where [7] appears, read: read-out: OPM-2 10% FBS IC50 IP, OPM-2 cells, 10% FBS, 16 h incubation.

Where two headings read alike, the source gives them in different places.

What is called IC50 is the concentration that inhibits the measured activity by half.

recombinant human Mcl-1 (residues 171-327) / Bim interaction, sequence (Q07820 171-327): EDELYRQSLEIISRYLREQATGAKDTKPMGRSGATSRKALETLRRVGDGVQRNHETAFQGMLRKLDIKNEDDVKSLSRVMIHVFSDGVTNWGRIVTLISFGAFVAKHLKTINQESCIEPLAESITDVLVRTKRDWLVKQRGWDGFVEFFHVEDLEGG

With `CO[C@]1(CN2C[C@@H](C)N(C(C)C)[C@H](C)C2)/C=C/C[C@H](C)[C@@H](C)S(=O)(=O)NC(=O)c2ccc3c(c2)N(C[C@@H]2CC[C@H]21)C[C@@]1(CCCc2cc(Cl)ccc21)CO3` [Example 343, (1S,3′R,6′R,7′R,8′E,11′S,12′R)-6-chloro-7′-(((3R,5R)-3,5-dimethyl-4-(1-methylethyl)-1-piperazinyl)methyl)-7′-methoxy-11′,12′-dimethyl-3,4-dihydro-2H,15′H-spiro[naphthalene-1,22′-[20]oxa[13]thia[1,14]diazatetracyclo [14.7.2.0~3,6~.0~19,24~]pentacosa[8,16,18,24]tetraen]-15′-one 13′,13′-dioxide], the IC50 in assay [1] (setting [3]) worked out at 94 nM; in assay [2] (setting [4]), 0.093 nM.
Turning to `CO[C@@]1(CN2CC3(C2)CN(C(=O)OC(C)(C)C)C3)/C=C/C[C@H](C)[C@@H](C)S(=O)(=O)NC(=O)c2ccc3c(c2)N(C[C@@H]2CC[C@H]21)C[C@@]1(CCCc2cc(Cl)ccc21)CO3` [Example 204, tert-butyl 6-(((1S,3′R,6′R,7′S,8′E,11′S, 12′R)-6-chloro-7′-methoxy-11′,12′-dimethyl-13′,13′-dioxido-15′-oxo-3,4-dihydro-2H-spiro[naphthalene-1,22′-[20]oxa[13]thia[1,14]diazatetracyclo [14.7.2.0~3,6~.0~19,24~]pentacosa[8,16,18,24]tetraen]-7′-yl)methyl)-2,6-diazaspiro[3.3]heptane-2-carboxylate], the IC50 in assay [1] (setting [3]) was found to be 319 nM; in assay [2] (setting [4]) it was 0.23 nM.
Turning to `CO[C@@]1([C@H](C)O)CCC[C@H](C)[C@@H](C)S(=O)(=O)NC(=O)c2ccc3c(c2)N(C[C@@H]2CC[C@H]21)C[C@@]1(CCCc2cc(Cl)ccc21)CO3` (single isomer, unassigned) [Example 100482], the figures for the IC50 in assay [1] (setting [5]) and in assay [2] (setting [6]) were 105 nM and 0.183 nM, respectively.
Take `C[C@@H]1[C@@H](C)C/C=C/[C@](O)(C2SCCCS2)[C@@H]2CC[C@H]2CN2C[C@@]3(CCCc4cc(Cl)ccc43)COc3ccc(cc32)C(=O)NS1(=O)=O` [Example 100259, (1S,3′R,6′R,7′R,8′E,11′S,12′R)-6-chloro-7′-(1,3-dithian-2-yl)-7′-hydroxy-11′,12′-dimethyl-3,4-dihydro-2H,15′H-spiro[naphthalene-1,22′-[20]oxa[13]thia[1,14]diazatetracyclo [14.7.2.0~3,6~.0~19,24~]pentacosa[8,16,18,24]tetraen]-15′-one 13′,13′-dioxide]: the IC50 in assay [1] (setting [5]) came out at 1250 nM; in assay [2] (setting [6]) it was 6.18 nM.
As for `CO[C@]1(CN2CCN3CCCC[C@@H]3C2)/C=C/C[C@H](C)[C@@H](C[C@H](C)O)S(=O)(=O)NC(=O)c2ccc3c(c2)N(C[C@@H]2CC[C@H]21)C[C@@]1(CCCc2cc(Cl)ccc21)CO3` (single isomer, unassigned) [Example 363], the IC50 worked out at 101 nM in assay [1] (setting [7]) and 0.08 nM in assay [2] (setting [4]).
Regarding `CO[C@]1(c2nccs2)/C=C/C[C@H](C)[C@@H](C)S(=O)(=O)NC(=O)c2ccc3c(c2)N(C[C@@H]2CC[C@H]21)C[C@@]1(CCCc2cc(Cl)ccc21)CO3` (single isomer, unassigned) [Example 100522], the 50% inhibitory concentration (IC50) stood at 538 nM in assay [1] (setting [5]) and 0.144 nM in assay [2] (setting [6]).
With `COC1=NO[C@@]2(CCC[C@H](C)[C@@H](C)S(=O)(=O)NC(=O)c3ccc4c(c3)N(C[C@@H]3CC[C@H]32)C[C@@]2(CCCc3cc(Cl)ccc32)CO4)C1` [Example 100134, (1S,3′R,6′R,7′S,11′S,12′R)-6-chloro-3″- methoxy-11′,12′-dimethyl-3,4-dihydro-2H,4″H,15′H-dispiro[naphthalene-1,22′-[20]oxa[13]thia[1,14]diazatetracyclo [14.7.2.0~3,6~.0~19,24~]pentacosa[16,18,24]triene-7′,5″-[1,2]oxazol]-15′-one 13′,13′-dioxide], the IC50 in assay [1] (setting [5]) came to 3510 nM; in assay [2] (setting [6]), 0.845 nM.
Take `CO[C@@]1(CN2CCN3CCN(C(=O)CCS(=O)(=O)c4ccccc4)C[C@H]3C2)/C=C/C[C@H](C)[C@@H](C)S(=O)(=O)NC(=O)c2ccc3c(c2)N(C[C@@H]2CC[C@H]21)C[C@@]1(CCCc2cc(Cl)ccc21)CO3` (single isomer, unassigned) [Example 295]: the half-maximal inhibitory concentration (IC50) in assay [1] (setting [7]) turned out to be 104 nM; in assay [2] (setting [4]), 0.321 nM.
`CO[C@@]1(CN2CCN(C(=O)N(C)C)CC2)/C=C/C[C@H](C)[C@@H](C)S(=O)(=O)NC(=O)c2ccc3c(c2)N(C[C@@H]2CC[C@H]21)C[C@@]1(CCCc2cc(Cl)ccc21)CO3` [Example 259, 4-(((1S,3′R,6′R,7′S,8′E,11′S, 12′R)-6-chloro-7′-methoxy-11′,12′-dimethyl-13′,13′-dioxido-15′-oxo-3,4-dihydro-2H-spiro[naphthalene-1,22′-[20]oxa[13]thia[1,14]diazatetracyclo [14.7.2.0~3,6~.0~19,24~]pentacosa[8,16,18,24]tetraen]-7′-yl)methyl)-N,N-dimethyl-1-piperazinecarboxamide]: the IC50 was 254 nM in assay [1] (setting [3]) and 0.23 nM in assay [2] (setting [4]).
With `CO[C@]1(CN2CCN(C(C)C)[C@H](C)C2)/C=C/C[C@H](C)[C@@H](C)S(=O)(=O)NC(=O)c2ccc3c(c2)N(C[C@@H]2CC[C@H]21)C[C@@]1(CCCc2cc(Cl)ccc21)CO3` [Example 8, (1 S,3′R,6′R,7′R,8′E, 11′S,12′R)-6-CHLORO-7′-METHOXY-11′,12′-DIMETHYL-7′-(((3R)-3-METHYL-4-(1-METHYLETHYL)-1-PIPERAZINYL)METHYL)-3,4-DIHYDRO-2H, 15′H-SPIRO [NAPHTHALENE-1,22′-[20]OXA[13]THIA[1,14]DIAZATETRACYCLO[14.7.2.0-3,6˜.0˜19,24˜]PENT ACOSA[8,16,18,24]TETRAEN]-15′-ONE 13′,13′-DIOXIDE], the IC50 in assay [1] (setting [7]) amounted to 25 nM; in assay [2] (setting [4]), 0.053 nM.
On to `C[C@@H]1[C@@H](C)C/C=C/[C@@](CC(=O)N(C)C)(OCCN2CCOCC2)[C@@H]2CC[C@H]2CN2C[C@@]3(CCCc4cc(Cl)ccc43)COc3ccc(cc32)C(=O)NS1(=O)=O` (single isomer, unassigned) [Example 100310], for which the IC50 in assay [1] (setting [5]) was 120 nM; in assay [2] (setting [6]), 0.152 nM.
Consider `CO[C@@]1(c2cccc(F)n2)/C=C/C[C@H](C)[C@@H](C)S(=O)(=O)NC(=O)c2ccc3c(c2)N(C[C@@H]2CC[C@H]21)C[C@@]1(CCCc2cc(Cl)ccc21)CO3` (single isomer, unassigned) [Example 100339], for which the IC50 came to 1380 nM in assay [1] (setting [5]) and 0.186 nM in assay [2] (setting [6]).
On to `CO[C@]1(CCN2CCN3CCCC[C@@H]3C2)/C=C/C[C@H](C)[C@@H](C)S(=O)(=O)NC(=O)c2ccc3c(c2)N(C[C@@H]2CC[C@H]21)C[C@@]1(CCCc2cc(Cl)ccc21)CO3` [Example 100591, (1S,3′R,6′R,7′R,8′E,11′S,12′R)-6-chloro-7′-methoxy-11′,12′-dimethyl-7′-(2-((9aR)-octahydro-2H-pyrido[1,2-a]pyrazin-2-yl)ethyl)-3,4-dihydro-2H,15′H-spiro[naphthalene-1,22′-[20]oxa[13]thia[1,14]diazatetracyclo [14.7.2.0~3,6~.0~19,24~]pentacosa[8,16,18,24]tetraen]-15′-one 13′,13′-dioxide], for which the values for the IC50 in assay [1] (setting [5]) and in assay [2] (setting [6]) were 60 nM and 0.075 nM, respectively.
For `C[C@@H]1[C@@H](C)C/C=C/[C@@](O)(c2cccnn2)[C@@H]2CC[C@H]2CN2C[C@@]3(CCCc4cc(Cl)ccc43)COc3ccc(cc32)C(=O)NS1(=O)=O` (single isomer, unassigned) [Example 100348], in that order: 125 nM and 0.135 nM.
For `Cc1ccc([C@]2(O)/C=C/C[C@H](C)[C@@H](C)S(=O)(=O)NC(=O)c3ccc4c(c3)N(C[C@@H]3CC[C@H]32)C[C@@]2(CCCc3cc(Cl)ccc32)CO4)nc1` (single isomer, unassigned) [Example 100439], in that order: 2640 nM and 0.619 nM.
Regarding `COCCN1CCN(C[C@]2(OC)/C=C/C[C@H](C)[C@@H](C)S(=O)(=O)NC(=O)c3ccc4c(c3)N(C[C@@H]3CC[C@H]32)C[C@@]2(CCCc3cc(Cl)ccc32)CO4)CC1(C)C` [Example 334, (1S,3′R,6′R,7′S,8′E,11′S,12′R)-6-chloro-7′-methoxy-7′-((4-(2-methoxyethyl)-3,3-dimethyl-1-piperazinyl)methyl)-11′,12′-dimethyl-3,4-dihydro-2H,15′H-spiro[naphthalene-1,22′-[20]oxa[13]thia[1,14]diazatetracyclo [14.7.2.0~3,6~.0~19,24~]pentacosa[8,16,18,24]tetraen]-15′-one 13′,13′-dioxide], the results for the IC50 in assay [1] (setting [3]) and in assay [2] (setting [4]) were 159 nM and 0.186 nM, respectively.
For `CO[C@@H](C(=O)N(C)C)[C@@]1(O)/C=C/C[C@H](C)[C@@H](C)S(=O)(=O)NC(=O)c2ccc3c(c2)N(C[C@@H]2CC[C@H]21)C[C@@]1(CCCc2cc(Cl)ccc21)CO3` [Example 100286, (2R)-2-((1S,3′R,6′R,7′R,8′E,11′S,12′R)-6-chloro-7′-hydroxy-11′,12′-dimethyl-13′,13′-dioxido-15′-oxo-3,4-dihydro-2H-spiro[naphthalene-1,22′-[20]oxa[13]thia[1,14]diazatetracyclo [14.7.2.0~3,6~.0~19,24~]pentacosa[8,16,18,24]tetraen]-7′-yl)-2-methoxy-N,N-dimethylethanamide], the IC50 stood at 1580 nM in assay [1] (setting [5]) and 0.471 nM in assay [2] (setting [6]).

The values above are taken from patent publication US10821115B2, “Compounds that inhibit Mcl-1 protein” (priority 2017, dated 2020).
